The text below walks through data of US20220054658A1, “CONJUGATES” (Transfection Holdings Limited, priority 2018, published 2022).

For experiment [1], the system named is mixed culture of wild type nematodes (roundworms, tape worms and flukes). Kind of experiment: Nematode testing: mixed culture of wild type nematodes. The format is in vivo. The settings on record: 20 h incubation. The method, then: A mixed culture of wild type nematodes (roundworms, tape worms and flukes), obtained from Massey University's sheep farm, were incubated for 20 h with compound 14, compound and commercially available ivermectin B1a, as a control. The protocol followed is the same as the C. elegans protocol used previously.

Experiment [2] has as its system gastrointestinal system (crop, midgut and rectum) of adult honey bees. Nature of the experiment: Honey bee gut uptake test. Further details: species or system Apis mellifera. The settings on record: 100 μM, 33° C., 45 min. The method, then:
Honey bee (A. mellifera) hives were obtained and allowed to feed ab libitum spring to autumn. During the winter period, pollen mixed with 50% (v/v) sucrose was added to the honey bee hives in order to provide sufficient food. Honey bees were dissected and gastrointestinal system was removed including the crop, midgut and rectum, and added immediately to 500 μL of the delivery vehicle to be tested sample diluted with PBS at 100 μM final concentration or DMSO (0.1%) control. The mixture was incubated for 45 min at 33° C.
The gastrointestinal system (crop, midgut and rectum) of adult honey bees was extracted, and incubated with derivatives 1, 2, 8 and 11 at 100 μM and 33° C. for 45 min.

The next experiment relates to B. bovis Texas strain. Nature of the experiment: Short-term uptake test in B. bovis infected RBCs (confocal microscopy). The settings on record: 25 μM, 37° C., 45 min, ~5% PPE.
For experiment [3], the system named is M. tuberculosis strain H37Rv. Kind of experiment: Uptake test in M. tuberculosis. The format is cell-based, Mycobacterium tuberculosis. The settings on record: 50 μg/mL (~80 μM), room temperature, 45 min.
A further experiment deals with C. elegans. Nature of the experiment: Conjugate uptake in C. elegans (dye and praziquantel conjugates, fluorescence microscopy). It is filed as in vivo, Caenorhabditis elegans. The conditions noted are these: 50 μM. The method, then:
Nematode Growth Media (NGM) plates containing C. elegans were washed with 1.0-1.5 mL of standard M9 buffer and the washes were collected in an Eppendorf tube. The liquid containing the C. elegans was then spun for 1 min at room temperature at 10,000 rpm. The supernatant was removed, and fresh M9 buffer was added (500 μL) to generate a new stock solution of M9 buffer containing the C. elegans.
A C. elegans suspension (100 μL) was added a defined amount of M9 buffer (determined by the final desired concentration of compound to be tested: 399 μL in the case of the BODIPY tagged derivatives) contained within a separate Eppendorf tube. To this was then added a 25 mM solution of the compound in DMSO (1 μL). The resulting suspension was mixed using a vortex instrument.
The resulting mixture was incubated at room temperature for 2 to 4 h. in the dark (using aluminium foil to screen the tube, which was also stored in a cabinet).
Other samples were incubated overnight. Here, OP50 bacteria (3 μL) were added to the worms for feeding purposes, and the worms were kept in the dark at 20° C.
After the incubation, the tube contents were mixed gently by hand (typically by simple rotation of the tube), so as to achieve a homogenous suspension. A sample of the suspension (250 μL) was taken and mixed with M9 buffer (500 μL). The resulting suspension was placed in a centrifuge and spun at room temperature at 10,000 rpm for 1 min. The supernatant was removed, and the washing process was repeated twice more, each time using further quantities of fresh M9 buffer (500 μL each time). After the final washing sufficient supernatant was removed so as to leave a final sample volume of approximate 30 μL.
A 1.5% agarose solution in water was pre-warmed for 60 to 90 s. in a standard household style microwave (set to Power 4). Two drops of this solution was removed and placed on a glass slide. The glass slide was covered with a second glass slide. After 1 min., the slides were slid carefully apart, with the agarose remaining on one of the slides. Onto this slide was placed an aliquot of the final C. elegans solution (15 to 20 μL). To this was added a 20 mM sodium azide solution (5 μL) to inhibit nematode mobility. Vaseline was then placed around the agarose area before replacing the second slide. The slides were not pressed together.
The nematodes were then analysed using a Zeiss Axiskop 2 Plus microscope with a Hamamatsu Orca-ER (CA 742-95) camera. The images were resolved using OpenLab on a Mac operating system.
Compounds 1-11 were evaluated after 3 h and overnight incubation at a 50 μM concentration using the general uptake protocol described for C. elegans.
In order to compare the ability of a conjugate to improve the uptake of the drug praziquantel, two praziquantel derivatives were generated. Praziquantel was tagged with a BODIPY fluorescent tag (compound 12) and incorporated into a conjugate of the invention (compound 13). Compounds 12 and 13 were evaluated at a concentration of 50 μM using the C. elegans uptake protocol described above for compounds 1-11. Microscopic readings were taken after 3, 24 and 72 h.

For a further experiment, the system named is L. passim strain PRA-403. Nature of the experiment: Lotmaria passim parasite uptake test. It is filed as cell-based. The settings on record: room temperature, 45 min. The method, then: 100 mM stock solutions of BODIPY derivatives were prepared with dimethylsulfoxide (DMSO). L passim strain PRA-403 (ATCC) was cultured in modified medium for C. bombi (Tognazzo et al.). The parasite culture was centrifuged, supernatant was removed and 500 μL of L passim medium with compound (final concentration 500, 100, 10 or 1 μM for BODIPY derivatives) or DMSO (0.1%) control was added. Incubated for 45 min at room temperature.
Uptake tests were performed at 1 μM and 100 μM final concentration of CJ-BODIPY derivatives. After incubation at room temperature for 45 min, fluorescence intensities were evaluated using a microplate reader.

The next experiment has as its system P. falciparum. Kind of experiment: Plasmodium falciparum testing: uptake by infected and non-infected red blood cells. The format is cell-based. The conditions noted are these: 25 μM, 45 minutes, 37° C., synchronised stage and mix-stage cultures. The method, then:
Compounds 1, 5, 9, 10 and 11 were tested for uptake in both synchronised stage and mix-stage cultures at 25 μM concentrations.

In the next experiment the test system is T. brucei. Kind of experiment: Trypanosoma brucei testing: uptake. The format is cell-based. The settings on record: 10-25 μM, 45 minutes, 37° C.
The subject of the next experiment is T. annulata. Kind of experiment: Theileria annulata testing: uptake. The format is cell-based. The conditions noted are these: 1 hour, 37° C. The method, then:
T. annulata were cultured using RPMI 1640 with 10% Albumax II (Thermo-Fisher) serum. A standard hemocytometer was used to calculate the concentration of cells in the parent culture. […] For each compound and concentration to be tested, 2 mL of the culture were centrifuged at 1,000 rpm for 5 minutes. The medium was removed before the cells were resuspended in 950 μL of complete medium containing the compound to be tested at the desired concentration. This was prepared from a 100 mM stock solution of compound in DMSO. Once the cells were resuspended they were transferred to a 5 well plate (1 mL capacity per well). They were then incubated for 1 hour at 37° C. in an atmosphere of 5% CO2 in air. After the incubations were complete the contents of each well were transferred to a 10 mL centrifuge tube. Cold RPMI 1640 (Thermofisher) or HBSS added to obtain a volume of 5 mL. The suspension was then centrifuged at 1,000 rpm and at 4° C. for 5 minutes. […] After the final washing the pellet of cells was resuspended in a minimum amount of RPMI 1640 and then spotted onto a glass slide. The slide was then covered with a cover slip and analysed using Olympus BX60 UV microscope system with a Spot RT3 camera and Spot Image software with a FITC fluorescent filter.

Entries after “also recorded” stand apart in the source; their conditions may differ.

Description for B. bovis Texas strain: The parasite culture was centrifuged and washed once with GIT medium. RBC's were pellet down, and 20 μl infected RBC mixture (10 μl packed infected RBC+10 μl GIT) was prepared. Then, 180 μl GIT medium with compound the compound to be evaluated (final concentration 25 μM for BODIPY derivatives and 100 μM for phiLOV derivatives) or DMSO (0.1%)/PBS control was added. The samples were incubated for 45 min at 37° C. (Samples were stained 1 μg/mL diluted Hoechst 33342 in GIT medium). After incubation, the samples were centrifuged and the pellet was washed with GIT medium (3×). A final solution of 50% haematocrit infected RBC mixture was transferred to slides to be observed by confocal laser microscopy (Nikon A1).
Uptake experiments were performed by incubating the parasite (˜5% Parasitized Erythrocytes (PPE)) with each derivative at 25 μM and 37° C. for 45 min. After incubation, the fluorescence intensities were calculated from confocal microscope images.
The phiLOV double mutant (R475G, K476C) was used to generate derivatives P11, P1, P8, and P3 which were tested for uptake in B. bovis Texas strain using phiLOV as a control. The derivatives and the control were incubated at 100 μM and 37° C. for 45 min. After incubation, the samples were analysed under confocal microscopy using Hoeschst 33342 (Thermofisher) as co-stain.

As to “4″-O—[(R,Z)-3-(2,2,5,5-Tetramethyl-1,3-dioxane-4-carboxamido)acrylate]avermectin B1a [Compound 14]”, in [1], the “activity against nematodes relative to ivermectin B1a” value is listed as “enhanced activity against nematodes relative to commercially available ivermectin B1a” and the “concentration at which nematodes showed paralysis” value was determined as 5 µM.
For `CC1=CC(C)=[N+]2C1=Cc1ccc(CCCn3cc(CCNC(=O)/C=C\NC(=O)[C@H]4OC(C)(C)OCC4(C)C)nn3)n1[B-]2(F)F` [Compound 2, (Z)—N-((((3-[4,4-Difluoro-5,7-dimethyl-4-bora-3a,4a-diaza-s-indacene-3-yl]propyl)-1H-1,2,3-triazol-4-yl)ethylamino)-3-oxoprop-1-enyl)-2,2,5,5-tetramethyl-1,3-dioxane-4-carboxamide], the “fluorescence in honey bee gut (crop, midgut, rectum)” value in experiment [2] was “slight fluorescence in midgut and rectum, but none in the crop; also recorded: localised on the surface of the gut, but not inside of it”. Also, in the experiment on B. bovis Texas strain, the “uptake compared to compound 1 (% less)” value worked out at 90%. In experiment [3], the “fluorescence intensity compared to compound 1” value is recorded as “around 2.5 times” and the “uptake in M. tuberculosis (fluorescence intensity / microscopy)” value is on record as “preferred over their S counterparts; also recorded: highest fluorescence signals; also recorded: fluorescence is localised at the poles”. Besides, the “uptake: location of fluorescence in C. elegans” value (“uptake: location of fluorescence” below) with C. elegans (3 h incubation) is “traces of compound 2 were observed in the pharynx, gut cells and gut lumen of the larval stages”. Besides, the “uptake: location of fluorescence” value in the experiment on C. elegans (20 h / overnight incubation) is “fluorescence was localised in the gut cells, gut lumen and to a lesser extent within the pharynx of the larvae”. Besides, the “uptake in L. passim (fluorescence intensity, microplate reader)” value in the experiment with L. passim strain PRA-403 (1 μM and 100 μM) is listed as “highest reading amongst all the compounds tested”. The “uptake in L. passim (fluorescence microscopy)” value in the experiment with L. passim strain PRA-403 (500 μM) is on record as “exhibited fluorescence in the parasite's cytosol, with the derivative forming fluorescence dots”.
Take `CC1=CC(C)=[N+]2C1=Cc1ccc(CCCn3cc(CCNC(=O)CCNC(=O)[C@H](O)C(C)(C)CO)nn3)n1[B-]2(F)F` [Compound 9, (R)—N-((((3-[4,4-Difluoro-5,7-dimethyl-4-bora-3a,4a-diaza-s-indacene-3-yl]propyl)-1H-1,2,3-triazol-4-yl)ethylamino)-3-oxopropyl)-2,4-dihydroxy-3,3-dimethylbutanamide]: in the experiment on P. falciparum, the “uptake by infected and non-infected red blood cells” value is “taken up very quickly by both infected and non-infected erythrocytes, with very little difference in uptake between the two sets of red blood cells”. The “uptake in T. brucei” value in the experiment on T. brucei was “taken up much more rapidly and in much higher concentrations than compound 5; also recorded: spread throughout the cell”. The “uptake compared to other compounds” value is “the amount of fluorescence was lower than the enamide derivatives, compounds 1 to 8” in the experiment with C. elegans (3 h incubation) and “the amount of fluorescence was lower than the enamide derivatives, compounds 1 to 8” in the experiment with C. elegans (20 h incubation). Moreover, the “uptake: location of fluorescence” value with C. elegans (3 h incubation) is “traces of compound 9 were visible in the get cells and to a lesser extent 30 in the pharynx of both the larvae and the adult nematodes”; with C. elegans (20 h / overnight incubation), “small amounts of fluorescence could be detected in the gut cells of both larval and adult stages”. Besides, in the experiment with T. annulata, the “uptake in T. annulata” value is “taken up by T. annulata; also recorded: taken up more rapidly and fluorescence can be detected at lower concentrations albeit it is also present in the infected lymphocyte”.
On to `CC1=CC(C)=[N+]2C1=Cc1ccc(CCCn3cc(CCNC(=O)CCNC(=O)[C@@H]4OC(C)(C)OCC4(C)C)nn3)n1[B-]2(F)F` [Compound 10, (R)—N-((((3-[4,4-Difluoro-5,7-dimethyl-4-bora-3a,4a-diaza-s-indacene-3-yl]propyl)-1H-1,2,3-triazol-4-yl)ethylamino)-3-oxopropyl)-2,2,5,5-tetramethyl-1,3-dioxane-4-carboxamide], for which the “uptake by infected and non-infected red blood cells” value in the experiment on P. falciparum was “not taken up to any visible extent”. The “uptake in M. tuberculosis (fluorescence intensity / microscopy)” value in [3] is “minimal uptake”. For the same compound, the “uptake: location of fluorescence” value in the experiment on C. elegans (3 h incubation) is “traces of compound 10 were detected in the gut cells and gut lumen of the larvae; also recorded: also visible to a lesser degree in the pharynx of the larvae”; in the experiment on C. elegans (20 h / overnight incubation), “fluorescence was visible in the gut cells and in a smaller amount in the pharynx of the larval stages”. Also, in the experiment with C. elegans (20 h incubation), the “uptake compared to other compounds” value was “comparable with the enamide compounds showing the least uptake”. The “uptake in T. annulata” value in the experiment on T. annulata was “very limited uptake”.
Regarding `CC1=CC(C)=[N+]2C1=Cc1ccc(CCCN=[N+]=[N-])n1[B-]2(F)F` [Compound 11, 3-Azido[4,4-difluoro-5,7-dimethyl-4-bora-3a,4a-diaza-s-indacene-3-yl]propane, reference compound], the “uptake by infected and non-infected red blood cells” value with P. falciparum is “diffused into every red blood cell (both infected and non-infected)”. Also, the “fluorescence in honey bee gut (crop, midgut, rectum)” value in [2] was “showed only autofluorescence”. In addition, the “uptake compared to compound 1 (% less)” value with B. bovis Texas strain turned out to be 90%. For the same compound, the “uptake: location of fluorescence” value in the experiment with C. elegans (3 h incubation) was “slight fluorescence after 3 h, focalized in the gut lumen and gut cells”; in the experiment with C. elegans (20 h / overnight incubation) it was “no significant increase in fluorescence even after 20 h incubation”. Besides, in the experiment on T. annulata, the “uptake in T. annulata” value is “diffused indiscriminately”.
Turning to `CC[C@H](C)[C@H]1O[C@]2(CC[C@@H]1C)C[C@@H]1C[C@@H](C/C=C(\C)[C@@H](O[C@H]3C[C@H](OC)[C@@H](O[C@H]4C[C@H](OC)[C@@H](O)[C@H](C)O4)[C@H](C)O3)[C@@H](C)/C=C/C=C3\CO[C@@H]4[C@H](O)C(C)=C[C@@H](C(=O)O1)[C@]34O)O2` [ivermectin B1a, reference compound], in [1], the “concentration at which nematodes showed paralysis” value was determined as 50 µM.
